Reference: US8492391B2, “Substituted 6-(2-hydroxybenzylamino)purine derivatives, their use as medicaments and compositions containing these derivatives” (Univerzita Palackeho V Olomouci, priority 2009, dated 2013)
“Also recorded” adds a separate entry of the source.

Key:
CDK2/cyclin E = molecular target: T1, CDK2/cyclin E (Homo sapiens, UniProt P24941); assay: CDK2/cyclin E kinase inhibition assay; assay type: biochemical
T1 construct: made in house; host or cells: Sf9 insect cells, baculovirus co-infection

[1] = tested on: C-terminal domain of RNA polymerase II (serine 2 and serine 5 phosphorylation); assay: Immunoblotting of RNA polymerase II CTD phosphorylation (CDK9 activity in cells), MCF-7; assay type: cell-based, human; settings: MCF-7 cells
Procedure: Effect of compounds on CDK9 activity in cells was monitored by site-specific phosphorylations of C-terminal domain of RNA polymerase II, a substrate of CDK9, by means of immunoblotting. For immunoblotting, cell were detached with rubber policeman and washed three times with ice-cold PBS and lysed in buffer (50 mM Tris, pH 7.4, 250 mM NaCl, 5 mM EDTA, 50 mM NaF, 1 mM Na3VO4, 1% Nonidet P40) containing mixture of protease and phosphatase inhibitors (Sigma-Aldrich, USA). 20 μg of total proteins were separated by SDS-polyacrylamide gel electrophoresis (SDS-PAGE) and transferred onto nitrocellulose membranes. Membranes were blocked in 5% milk and 0.1% Tween 20 in PBS and probed overnight with specific monoclonal antibodies or rabbit polyclonal sera. Primary antibodies specific for RNA polymerase II (all from Santa Cruz Biotechnology, California, USA) included: (i) N-20 used at 1 μg/ml, (ii) H14, specific for form phosphorylated at phosphoserine 5, used at 6 μg/ml and (iii) H5, specific for form phosphorylated at phosphoserine 2 used at 4 μg/ml. […] All primary antibodies were diluted in PBS containing 5% powdered milk; 0.1% Tween 20. Peroxidase conjugated rabbit anti-mouse immunoglobulin or porcine anti-rabbit immunoglobulin antisera (DAKO, Denmark) were used as the secondary antibodies and visualised with ECL reagents (Amersham-Pharmacia, Little Chalfont, UK). […]

p53 = assay: p53-dependent transcription, β-galactosidase reporter in Arn8 cells; assay type: cell-based, human; parameters: key to p53 (effect): induction of p53 protein: ++: very strong; +: weak; −: no effect
Excerpt: Protein p53, accumulated in nuclei upon treatment by the compounds, then leads to trans-activation of natural cell cycle inhibitor p21^WAF1, further blocking the cell cycle. […] This allows qualitative as well as quantitative measurement of CDK inhibitors-induced p53 transcriptional activity via β-galactosidase assay. Then, the effect will be verified in treated cells by immunoblotting of proteins expressed under the control of p53. β-galactosidase activity of human melanoma cell line Arn8 was determined as described. […] Alternatively, β-galactosidase activity was quantified by measuring fluorescence of methylumbelliferyl-β-D-galactopyranoside cleavage product. Cell lines established from the human breast carcinoma (MCF-7) and the human melanoma (Arn8) cell lines were cultured in Dubecco's Modified Eagle Medium (DMEM) supplemented with 10% foetal bovine serum.
Effects of prepared compounds on activation of p53 protein were analysed in human melanoma cell line Arn8. […] The total β-galactosidase activity in Arn8 cells was quantified using a fluorimetric assay.

[2] = tested on: p53, p21^WAF1, Mcl-1 in MCF-7 cells; assay: Immunoblotting of p53, p21WAF1 and Mcl-1 in MCF-7 cells; assay type: cell-based, human
Procedure: For immunoblotting, cell were detached with rubber policeman and washed three times with ice-cold PBS and lysed in buffer (50 mM Tris, pH 7.4, 250 mM NaCl, 5 mM EDTA, 50 mM NaF, 1 mM Na3VO4, 1% Nonidet P40) containing mixture of protease and phosphatase inhibitors (Sigma-Aldrich, USA). 20 μg of total proteins were separated by SDS-polyacrylamide gel electrophoresis (SDS-PAGE) and transferred onto nitrocellulose membranes. Membranes were blocked in 5% milk and 0.1% Tween 20 in PBS and probed overnight with specific monoclonal antibodies or rabbit polyclonal sera. Primary antibodies specific for p53 (DO-1, in house), p21^WAF1 (118, in house), PARP-1 (2C10, Sigma-Aldrich St Louis, Mo., USA), Mcl-1 (S-19, Santa Cruz, USA), all used at 1 μg/ml. All primary antibodies were diluted in PBS containing 5% powdered milk; 0.1% Tween 20. Peroxidase conjugated rabbit anti-mouse immunoglobulin or porcine anti-rabbit immunoglobulin antisera (DAKO, Denmark) were used as the secondary antibodies and visualised with ECL reagents (Amersham-Pharmacia, Little Chalfont, UK).
The induction of p53 protein was apparent in 4 hrs but enhanced level of p21^WAF1 protein was observed only 12 hours after treatment with compound 128 (FIG. 5). The periods of time 12 and 24 hrs were chosen, since the level of protein expression reached a steady state.

CCC(CO)Nc1nc(NCc2cccc(OC)c2O)c2ncn(C(C)C)c2n1 (racemic) [Compound 128, (RS)-2-({6-[(2-hydroxy-3-methoxybenzyl)amino]-9-isopropyl-9-H-purin-2-yl}amino)butan-1-ol]
inhibition of kinase activity (FIG. 1) (CDK2/cyclin E; CDK2/cyclin E): inhibition of the CDK2/cyclin E kinase activity | IC50 (CDK2/cyclin E; kinase inhibitory activity, 15 μM ATP, histone substrate): 0.07 µM | levels of serine 2 and serine 5 phosphorylation of RNA polymerase II CTD [1]: substantially reduced; also recorded: is inhibited | p53 (effect): induction of p53 protein (p53; Arn8 cells stable transfected with a β-galactosidase reporter gene): ++ | total β-galactosidase activity (p53; Arn8 cells, 5 μM, 12 and 24 hours after treatment, vs DMSO control): strong activity of β-galactosidase | p53 (peak concentration in μM) (p53; Arn8 cells, concentration inducing maximum of β-galactosidase activity): 8.0 µM | activation of p53-dependent transcription (p53; Arn8 reporter cell line, β-galactosidase reporter activity): proved to activate p53-dependent transcription | expression of p53, p21^Waf1 and Mcl-1 ([2]; MCF7, 24 h, concentration dependent, immunoblotting): accumulation of tumor suppressor protein p53, expression of p53-regulated CDK inhibitor p21^Waf1 and downregulation of antiapoptotic protein Mcl-1 | time after treatment at which enhanced level of p21^WAF1 protein was observed ([2]; MCF-7 cells): 12 h | time at which induction of p53 protein was apparent ([2]; MCF-7 cells): 4 h
